“Also recorded” adds a separate entry of the source.
Assays:
[1] = test system: TLR9 signaling; test: ODN 1668-induced cytokine mRNA expression in BMDM (quantitative real time PCR); type: cell-based, mouse; details: BMDM; for inhibition of TLR9 signaling (ODN 1668-induced cytokine mRNA, overall): peptide 10, 20 or 40 μM, ODN 1668 1 μM
Experimental: The cDNA obtained was amplified with gene-specific primers for mouse HPRT, TNFα, IL-10, IL-12-p40, or IL-6 and Fast SYBR Green™ master mix (Applied Biosystemsm) as previously described.
Mouse BMDMs were incubated in the presence of a 10, 20 or 40 μM decoy peptide for 30 minutes prior to stimulation with ODN 1668 (1 μM). […] Data represent the means±SEM of at least three independent experiments. The statistical significance of changes in cytokine mRNA was determined by a one-way ANOVA test; *p<0.001. Peptides 9R3 and 9R34 have overlapping sequences (see Table 1).
To investigate inhibition of TLR9 signaling by 9R34 analogues, the following work was performed. Mouse BMDMs were incubated in the presence of a 10, 20 or 40 μM decoy peptide for 30 minutes prior to stimulation with ODN 1668 (1 μM). Cytokine mRNA expression was measured 1 hour after ODN 1668 challenge and normalized to the expression of HPRT. See also Table 1. Data represent means±SEM of at least three independent experiments.

[2] = target: T1, MyD88 TIR (Homo sapiens, UniProt Q99836); test: FLIM/FRET binding of Cy3-labeled peptides to Cer-fused TIR in HeLa cells
T1 construct: expressed in transfected cells; host or cells: HeLa
T1 sequence (Q99836 159-293 limits assumed): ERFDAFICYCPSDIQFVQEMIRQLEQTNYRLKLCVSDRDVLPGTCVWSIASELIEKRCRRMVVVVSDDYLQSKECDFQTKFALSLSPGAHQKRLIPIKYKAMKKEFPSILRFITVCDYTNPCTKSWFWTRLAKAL
Experimental: (§1) Three million HeLa cells were transfected with 10 μg of MyD88-Cer, TIRAP-Cer, TRAM-Cer, TLR2-Cer, TLR4 TIR-Cer, or TLR9 TIR-Cer expression vectors using a Lipofectamine™ 3000 kit from Invitrogen™ per manufacturer recommendations. Twenty four hours later, the transfected cells were trypsinized and reseeded into a 50-well gasket (Grace Bio-Labs™) mounted on a microscope slide at the density 8000 cells/well. The next day, cells were treated with Cy3-9R34-ΔN or Cy3-9R11 for 1 hour and fixed on the slides with a 4% paraformaldehyde solution.
(§2) Fluorescence lifetime images were acquired using the Alba V FLIM™ system (ISS™ Inc.). The excitation was from the laser diode 443 nm coupled with scanning module (ISS™) through multiband dichroic filter 443/532/635 nm (Semrock™) to Olympus™ IX71S microscope with objective 20×0.45 NA (UPlan™ Olympus™). Emission was observed through bandpass filter […] (Chroma Technology™) and detected by a photomultiplier H7422-40 (Hamamatsu™). Measurements were performed using frequency domain (FD) and time domain (TD) modalities of the FLIM system. FD FLIM data were acquired using ISS™ A320 FastFLIM™ electronics with n harmonics of 20 MHz laser repetition frequency (n=1, 2, 3, 4, 5, 6). FastFLIM™ was calibrated using fluorescein in buffer pH 8.0 as a standard with a single lifetime of 4.0 ns. TD FLIM images were acquired using time-correlated single photon counting TCSPC™ Model SPC-830 (Becker & Hick™).
(§3) Images (256×256 pixels) were acquired with resolution varied in the range ˜0.4-0.7 μm/pixel, using scan speed 1 ms/pixel. To avoid pixel intensity saturation in bright cells and to improve the signal from dim cells, two to five overlapping scans were used for acquisition of FLIM images. Image sizes varied from 100×100 to 180×180 μm to accommodate multiple cells. FLIM data were analyzed with VistaVision™ Suite software (Vista™ v.212 from ISST). Fluorescence lifetime was determined using single- and bi-exponential intensity decay models. Average lifetime images were generated based on pixel-by-pixel analysis using the combined signal of two neighboring pixels in all directions (bin 2=25 pixels). The binning was used to improve the signal for analysis. The average lifetimes were calculated from fitted parameters, decay times τi and amplitudes αi, τa=Σαiτi. The bi-exponential fitting procedure was performed with one lifetime component fixed at 3.1 nsec, which was found common for most images. To calculate the effective FRET efficiency (E), average lifetimes of the donor only images (τD) and donor-acceptor images (τDA) were used, E=1−τDA/τD.
(§4) To identify potential binding partners of inhibitory peptides a FRET approach coupled with Fluorescence Lifetime Imaging Microscopy (FLIM) was used. HeLa cells were transiently transfected with an expression vector that encodes a TIR domain fused with Cerulean fluorescent protein (Cer). Cells were treated with various concentrations of a Cy3-labeled inhibitory peptide 48 hours after transfection. Cy3 is a suitable FRET acceptor for Cer fluorescence. A direct molecular interaction of a Cy3-labeled peptide with Cer-fused TIR domain should quench Cer fluorescence, leading to a decreased fluorescence lifetime.
(§5) TLR9, MyD88, and TIRAP were selected as potential primary binding partners for Cy3-9R34-ΔN and Cy3-9R11. Cer-fused TLR2 and TLR4 TIR domains, and Cer not fused to a TIR, were used as controls. […] Therefore, the TIRAP-Cer with Cy3-2R9 was used as a positive binding control. Binding of Cy3-labeled CPDPs to Cerulean- (Cer-) labeled TIR domains was tested as follows. Fluorescence Lifetime IMages (FLIM) were made of HeLa cells expressing Cer not fused with a TIR domain (upper row) or fused with TLR9 TIR or TIRAP TIR (middle and bottom rows) and treated with a Cy3-labeled decoy peptide for 1 hour.
(§6) A progressive shift of average fluorescence lifetime towards lower values observed with increasing peptide concentrations indicates the binding between donor and acceptor moieties. […]

[3] = target: T2, TIRAP TIR (Homo sapiens, UniProt P58753); test: as above
T2 construct: fused with TLR9 TIR or TIRAP TIR; expressed in transfected cells; host or cells: HeLa
T2 sequence (P58753 84-213 limits assumed): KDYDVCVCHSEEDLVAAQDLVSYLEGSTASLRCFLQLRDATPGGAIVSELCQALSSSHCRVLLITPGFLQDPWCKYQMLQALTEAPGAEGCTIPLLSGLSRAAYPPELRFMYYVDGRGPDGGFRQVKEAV
Experimental: as §1, §2, §3, §4, §5, §6

[4] = target: T3, TLR9 TIR (Homo sapiens, UniProt Q9NR96); test: as above
T3 construct: expressed in transfected cells; host or cells: HeLa
T3 sequence (Q9NR96 868-1013 limits assumed): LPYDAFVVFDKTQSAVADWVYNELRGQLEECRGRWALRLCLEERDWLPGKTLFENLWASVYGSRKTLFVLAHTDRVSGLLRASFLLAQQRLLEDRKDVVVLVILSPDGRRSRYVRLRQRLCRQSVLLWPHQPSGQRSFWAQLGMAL
Experimental: as §1, §2, §3, §4, §5, §6

[5] = peptide 10, 20 or 40 μM 30 min before ODN 1668 (1 μM), 1 hour, normalized to HPRT

Sequence	TNFα mRNA expression ([1]; peptide 10, 20 or 40 μM 30 min before ODN 1668 (1 μM), 1 hour after stimulation, normalized to HPRT)	IL-10 mRNA expression [1, 5]	IL-12-p40 mRNA expression [1, 5]	inhibition of TLR9 signaling (ODN 1668-induced cytokine mRNA, overall) [1]	interaction with MyD88 TIR (FLIM summary) [2]	binding to TIRAP TIR (FLIM summary) [3]	binding to TLR9 TIR (FLIM summary) [4]
RSFWAQLGMALTRD (Synthetic peptide 9R11)	significantly suppressed	significantly suppressed	significantly suppressed	inhibit TLR9 signaling	interacted with the MyD88 TIR, but with a lower affinity	bind	bind
ALRLCLEERD [Peptide 9R34-ΔN]	–	–	–	as potent as the parent peptide; also recorded: inhibited TLR9 signaling more potently than 9R3	did not interact	bind	bind
